One block for each molecule: values may come before it.
Assays:
[1] = target: T1, Histone acetyltransferase p300 (Homo sapiens, UniProt Q09472); test: Inhibition of human recombinant p300 catalytic domain (1284 to 1673 residues) expressed in Escherichia coli using H4-8 peptide substrate by radiometric assay in presence of [3H]acetyl-CoA
[2] = target: T2, Histone acetyltransferase KAT2B (Homo sapiens, UniProt Q92831); test: Inhibition of PCAF (unknown origin) using N-terminal histone H3 substrate by radiometric filter binding based phenotypic screen in presence of [3H]acetyl-CoA
Target sequence in this assay (Q92831 whole entry, the tested form may be a part): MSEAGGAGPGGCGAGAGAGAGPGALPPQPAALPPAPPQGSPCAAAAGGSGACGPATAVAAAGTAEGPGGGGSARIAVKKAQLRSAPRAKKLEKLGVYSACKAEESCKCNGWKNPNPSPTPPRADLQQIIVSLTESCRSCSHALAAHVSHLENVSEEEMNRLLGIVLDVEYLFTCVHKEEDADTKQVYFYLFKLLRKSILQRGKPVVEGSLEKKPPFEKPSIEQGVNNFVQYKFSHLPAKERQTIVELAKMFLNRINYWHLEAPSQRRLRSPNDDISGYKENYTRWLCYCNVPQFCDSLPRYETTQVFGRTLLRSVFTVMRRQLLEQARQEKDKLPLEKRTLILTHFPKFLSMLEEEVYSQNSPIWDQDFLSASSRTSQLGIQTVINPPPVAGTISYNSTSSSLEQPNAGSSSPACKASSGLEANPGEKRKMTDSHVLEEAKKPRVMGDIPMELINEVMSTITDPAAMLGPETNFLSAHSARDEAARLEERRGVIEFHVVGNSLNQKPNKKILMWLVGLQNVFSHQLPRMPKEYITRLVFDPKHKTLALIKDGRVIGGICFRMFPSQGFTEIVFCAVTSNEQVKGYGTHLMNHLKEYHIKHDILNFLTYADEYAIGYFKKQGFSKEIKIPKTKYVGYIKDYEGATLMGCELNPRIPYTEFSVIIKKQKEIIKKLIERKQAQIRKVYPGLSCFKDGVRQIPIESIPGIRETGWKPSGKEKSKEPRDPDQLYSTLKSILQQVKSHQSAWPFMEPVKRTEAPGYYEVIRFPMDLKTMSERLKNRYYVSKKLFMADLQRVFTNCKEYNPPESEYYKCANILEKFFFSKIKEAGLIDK

[3] = target: T1, Histone acetyltransferase p300; test: Inhibition of recombinant p300 catalytic domain (unknown origin) using N-terminal histone H3 substrate by orthogonal fluorescence assay in presence of [3H]acetyl-CoA
[4] = target: Histone acetyltransferase KAT2A (Homo sapiens, UniProt Q92830); test: Inhibition of GCN5 (unknown origin) using N-terminal histone H3 substrate by radiometric filter binding based phenotypic screen in presence of [3H]acetyl-CoA
[5] = target: T1, Histone acetyltransferase p300; test: Inhibition of recombinant p300 catalytic domain (unknown origin) using N-terminal histone H3 substrate by radiometric filter binding based phenotypic screen in presence of [3H]acetyl-CoA
CREB-binding protein = CREB-binding protein (Homo sapiens, UniProt Q92793); test: Inhibition of CBP (unknown origin) using N-terminal histone H3 substrate at 100 uM by radiometric filter binding based phenotypic screen in presence of [3H]acetyl-CoA relative to control
[6] = target: T3, Histone acetyltransferase KAT5 (Homo sapiens, UniProt Q92993); test: Inhibition of TIP60 (unknown origin) using N-terminal histone H3 substrate at 100 uM by […] in presence of [3H]acetyl-CoA relative to control
Target sequence in this assay (Q92993 whole entry, looked up): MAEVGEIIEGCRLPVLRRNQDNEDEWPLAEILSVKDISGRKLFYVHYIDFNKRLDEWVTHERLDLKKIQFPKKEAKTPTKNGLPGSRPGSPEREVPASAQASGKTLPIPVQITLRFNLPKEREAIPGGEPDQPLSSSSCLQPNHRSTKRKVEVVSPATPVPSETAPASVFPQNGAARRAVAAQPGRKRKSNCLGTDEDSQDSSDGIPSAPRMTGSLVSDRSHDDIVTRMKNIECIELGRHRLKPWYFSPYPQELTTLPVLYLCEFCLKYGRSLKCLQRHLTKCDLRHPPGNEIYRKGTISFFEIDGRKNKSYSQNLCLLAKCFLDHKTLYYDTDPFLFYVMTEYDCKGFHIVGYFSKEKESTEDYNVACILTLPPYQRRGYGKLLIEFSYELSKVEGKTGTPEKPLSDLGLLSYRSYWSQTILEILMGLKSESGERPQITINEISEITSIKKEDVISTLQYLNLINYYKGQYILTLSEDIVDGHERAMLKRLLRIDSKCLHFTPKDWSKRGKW

[7] = target: Histone acetyltransferase KAT7 (Homo sapiens) (UniProt O95251); test: Inhibition of HBO1 (unknown origin) using N-terminal histone H3 substrate at 100 uM by […] in presence of [3H]acetyl-CoA relative to control
[8] = target: T1, Histone acetyltransferase p300; test: Inhibition of full length recombinant human His6-tagged p300 expressed in baculovirus infected Sf21 cells using N-terminal H3 peptide substrate after 10 mins by radiometric filter binding assay in presence of [3H]acetyl-CoA
[9] = target: T3, Histone acetyltransferase KAT5; test: Inhibition of TIP60 (unknown origin) expressed in bacterial system using histone substrate at 25 uM after 10 mins by liquid scintillation counting method in presence of [3H]acetyl-CoA relative to control
Target sequence in this assay (Q92993 whole entry, looked up): as above

[10] = target: T2, Histone acetyltransferase KAT2B; test: Inhibition of full length recombinant FLAG-tagged PCAF (unknown origin) expressed in baculovirus expression system using histone substrate after 10 mins by liquid scintillation counting method in presence of [3H]acetyl-CoA
Target sequence in this assay (Q92831 whole entry, the tested form may be a part): as the sequence (Q92831 whole entry, the tested form may be a part) above

[11] = target: T1, Histone acetyltransferase p300; test: Inhibition of full length recombinant His6-tagged p300 (unknown origin) expressed in baculovirus expression system using histone substrate at 25 uM after 10 mins by liquid scintillation counting method in presence of [3H]acetyl-CoA relative to control
[12] = target: T1, Histone acetyltransferase p300; test: Inhibition of human recombinant C-terminal GST-tagged p300 (1195 to 1673 residues) expressed in competent Escherichia coli DH5alpha cells using histone substrate after 30 mins by scintillation counting method in presence of [3H]acetyl-CoA
[13] = target: T1, Histone acetyltransferase p300; test: Inhibition of full length recombinant His6-tagged p300 (unknown origin) expressed in baculovirus infected sf21 cells using histone substrate after 10 mins by liquid scintillation counting method in presence of [3H]acetyl-CoA
[14] = target: T2, Histone acetyltransferase KAT2B; test: Inhibition of recombinant PCAF (unknown origin) expressed in baculovirus expression system using histone substrate at 50 uM after 10 mins by liquid scintillation counting method in presence of [3H]acetyl-CoA relative to control
Target sequence in this assay (Q92831 whole entry, looked up, the tested form may be a part): as the sequence (Q92831 whole entry, the tested form may be a part) above

[15] = target: T1, Histone acetyltransferase p300; test: Inhibition of recombinant p300 (unknown origin) expressed in baculovirus expression system using histone substrate at 50 uM after 10 mins by liquid scintillation counting method in presence of [3H]acetyl-CoA relative to control
[16] = target: T2, Histone acetyltransferase KAT2B; test: Inhibition of PCAF (unknown origin) using N-terminal histone H3-20 peptide substrate incubated for 3.5 mins by liquid scintillation counting method in presence of [3H]acetyl-CoA
Target sequence in this assay (Q92831 whole entry, the tested form may be a part): as above

[17] = target: T3, Histone acetyltransferase KAT5; test: Inhibition of full length TIP60 (unknown origin) expressed in Escherichia coli using N-terminal histone H4-20 peptide substrate incubated for 10 mins by liquid scintillation counting method in presence of [3H]acetyl-CoA
Target sequence in this assay (Q92993 whole entry): as the sequence (Q92993 whole entry, looked up) above

[18] = target: T4, Histone acetyltransferase ESA1 (Saccharomyces cerevisiae (strain ATCC 204508 / S288c) (Baker's yeast), UniProt Q08649); test: Inhibition of yeast ESA1 using N-terminal histone H3 substrate by radiometric filter binding based […] in presence of [3H]acetyl-CoA
T4 sequence (Q08649 whole entry): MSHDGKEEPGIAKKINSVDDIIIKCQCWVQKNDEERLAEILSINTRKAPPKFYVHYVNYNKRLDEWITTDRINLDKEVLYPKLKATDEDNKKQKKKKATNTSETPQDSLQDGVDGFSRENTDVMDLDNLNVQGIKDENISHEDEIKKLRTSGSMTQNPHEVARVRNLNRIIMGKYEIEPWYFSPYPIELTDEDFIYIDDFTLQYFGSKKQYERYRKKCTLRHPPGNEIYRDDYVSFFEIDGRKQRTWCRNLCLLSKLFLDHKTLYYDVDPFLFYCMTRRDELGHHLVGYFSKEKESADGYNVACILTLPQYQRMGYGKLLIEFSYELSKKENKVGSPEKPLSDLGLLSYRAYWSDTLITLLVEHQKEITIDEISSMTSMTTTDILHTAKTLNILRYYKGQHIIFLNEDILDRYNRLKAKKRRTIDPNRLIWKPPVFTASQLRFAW

[19] = target: T1, Histone acetyltransferase p300; test: Inhibition of p300 (unknown origin) using N-terminal histone H4-20 peptide substrate incubated for 10 mins by liquid scintillation counting method in presence of [14C]acetyl-CoA
[20] = target: T1, Histone acetyltransferase p300; test: Activation of full length recombinant human His6-tagged p300 expressed in baculovirus infected Sf21 cells using N-terminal H3 peptide substrate at 275 uM after 10 mins by radiometric filter binding assay in presence of [3H]acetyl-CoA relative to control
[21] = target: T1, Histone acetyltransferase p300; test: Inhibition of recombinant full length p300 (unknown origin) using N-terminal H4-20 peptide substrate incubated for 7 mins by radiometric gel assay in presence of [14C]acetyl-CoA
[22] = target: T2, Histone acetyltransferase KAT2B; test: Inhibition of full length recombinant human FLAG-tagged PCAF expressed in baculovirus expression system using histone substrate incubated for 10 mins by radiometric gel assay
Target sequence in this assay (Q92831 whole entry, the tested form may be a part): as the sequence (Q92831 whole entry, the tested form may be a part) above

[23] = target: T1, Histone acetyltransferase p300; test: Inhibition of full length recombinant human FLAG-tagged p300 expressed in baculovirus expression system using histone substrate incubated for 10 mins by radiometric gel assay

T1 sequence (Q09472 whole entry, the tested form may be a part): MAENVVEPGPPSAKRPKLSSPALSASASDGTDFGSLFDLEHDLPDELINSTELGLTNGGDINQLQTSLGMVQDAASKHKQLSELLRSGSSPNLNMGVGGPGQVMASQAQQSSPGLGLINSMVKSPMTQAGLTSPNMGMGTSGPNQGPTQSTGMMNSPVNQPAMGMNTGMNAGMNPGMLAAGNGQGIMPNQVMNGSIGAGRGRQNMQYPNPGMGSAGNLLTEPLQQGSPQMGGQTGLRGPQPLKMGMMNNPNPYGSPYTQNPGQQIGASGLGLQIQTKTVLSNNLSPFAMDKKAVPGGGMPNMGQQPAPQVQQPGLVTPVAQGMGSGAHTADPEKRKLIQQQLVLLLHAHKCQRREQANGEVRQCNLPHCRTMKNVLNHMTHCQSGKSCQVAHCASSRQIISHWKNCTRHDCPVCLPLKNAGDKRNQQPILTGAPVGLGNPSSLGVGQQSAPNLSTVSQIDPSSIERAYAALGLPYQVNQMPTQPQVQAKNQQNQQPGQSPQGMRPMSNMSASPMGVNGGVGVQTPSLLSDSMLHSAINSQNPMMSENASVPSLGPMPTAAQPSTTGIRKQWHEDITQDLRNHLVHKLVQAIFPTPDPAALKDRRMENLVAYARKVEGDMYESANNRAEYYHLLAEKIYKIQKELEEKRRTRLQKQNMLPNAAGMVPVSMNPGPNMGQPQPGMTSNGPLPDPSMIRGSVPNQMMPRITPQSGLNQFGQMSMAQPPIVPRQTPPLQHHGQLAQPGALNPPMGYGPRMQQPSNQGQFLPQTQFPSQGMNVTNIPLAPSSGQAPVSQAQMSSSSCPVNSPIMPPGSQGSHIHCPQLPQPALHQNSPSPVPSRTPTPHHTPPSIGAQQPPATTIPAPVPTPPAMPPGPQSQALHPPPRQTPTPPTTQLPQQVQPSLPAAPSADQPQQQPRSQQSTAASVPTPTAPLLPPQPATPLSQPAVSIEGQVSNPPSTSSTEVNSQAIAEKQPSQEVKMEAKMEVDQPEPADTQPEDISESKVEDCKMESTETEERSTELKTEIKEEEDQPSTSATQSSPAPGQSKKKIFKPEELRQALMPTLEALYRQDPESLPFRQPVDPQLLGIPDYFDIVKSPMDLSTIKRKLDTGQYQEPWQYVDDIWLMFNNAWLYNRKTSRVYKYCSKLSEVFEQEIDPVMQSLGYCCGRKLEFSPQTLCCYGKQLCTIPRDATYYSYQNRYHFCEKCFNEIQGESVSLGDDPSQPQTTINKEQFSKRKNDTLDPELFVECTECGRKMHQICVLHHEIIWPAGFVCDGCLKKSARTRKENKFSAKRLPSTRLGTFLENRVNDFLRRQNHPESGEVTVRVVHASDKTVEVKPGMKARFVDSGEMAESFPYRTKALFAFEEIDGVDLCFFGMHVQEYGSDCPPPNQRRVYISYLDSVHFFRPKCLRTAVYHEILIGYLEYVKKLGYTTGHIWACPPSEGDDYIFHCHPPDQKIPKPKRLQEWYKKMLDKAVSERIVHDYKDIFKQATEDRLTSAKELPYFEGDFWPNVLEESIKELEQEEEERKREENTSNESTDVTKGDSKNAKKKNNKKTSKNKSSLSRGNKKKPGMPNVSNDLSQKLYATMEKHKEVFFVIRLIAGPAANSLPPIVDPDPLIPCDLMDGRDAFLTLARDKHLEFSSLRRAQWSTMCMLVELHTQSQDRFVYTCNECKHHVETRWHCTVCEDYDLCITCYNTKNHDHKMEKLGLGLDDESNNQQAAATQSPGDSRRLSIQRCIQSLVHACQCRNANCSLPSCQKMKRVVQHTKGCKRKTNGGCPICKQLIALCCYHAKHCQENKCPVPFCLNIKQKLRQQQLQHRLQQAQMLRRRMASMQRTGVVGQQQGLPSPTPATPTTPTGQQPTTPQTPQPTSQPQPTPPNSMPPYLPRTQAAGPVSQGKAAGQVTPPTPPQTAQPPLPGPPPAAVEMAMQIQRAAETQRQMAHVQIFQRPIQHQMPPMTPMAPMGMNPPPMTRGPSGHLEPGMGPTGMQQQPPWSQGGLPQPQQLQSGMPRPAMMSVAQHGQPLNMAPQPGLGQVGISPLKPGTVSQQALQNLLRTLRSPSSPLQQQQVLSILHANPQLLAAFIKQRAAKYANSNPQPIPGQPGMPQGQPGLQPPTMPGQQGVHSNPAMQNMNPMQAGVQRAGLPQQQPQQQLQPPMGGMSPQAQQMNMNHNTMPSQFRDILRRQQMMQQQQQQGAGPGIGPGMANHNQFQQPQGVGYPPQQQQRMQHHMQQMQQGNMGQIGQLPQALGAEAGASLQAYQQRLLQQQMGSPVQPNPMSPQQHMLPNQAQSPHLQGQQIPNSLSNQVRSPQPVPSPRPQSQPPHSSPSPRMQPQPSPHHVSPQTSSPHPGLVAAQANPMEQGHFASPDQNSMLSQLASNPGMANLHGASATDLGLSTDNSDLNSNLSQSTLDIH
Histone acetyltransferase KAT7 (Homo sapiens), sequence (O95251 whole entry): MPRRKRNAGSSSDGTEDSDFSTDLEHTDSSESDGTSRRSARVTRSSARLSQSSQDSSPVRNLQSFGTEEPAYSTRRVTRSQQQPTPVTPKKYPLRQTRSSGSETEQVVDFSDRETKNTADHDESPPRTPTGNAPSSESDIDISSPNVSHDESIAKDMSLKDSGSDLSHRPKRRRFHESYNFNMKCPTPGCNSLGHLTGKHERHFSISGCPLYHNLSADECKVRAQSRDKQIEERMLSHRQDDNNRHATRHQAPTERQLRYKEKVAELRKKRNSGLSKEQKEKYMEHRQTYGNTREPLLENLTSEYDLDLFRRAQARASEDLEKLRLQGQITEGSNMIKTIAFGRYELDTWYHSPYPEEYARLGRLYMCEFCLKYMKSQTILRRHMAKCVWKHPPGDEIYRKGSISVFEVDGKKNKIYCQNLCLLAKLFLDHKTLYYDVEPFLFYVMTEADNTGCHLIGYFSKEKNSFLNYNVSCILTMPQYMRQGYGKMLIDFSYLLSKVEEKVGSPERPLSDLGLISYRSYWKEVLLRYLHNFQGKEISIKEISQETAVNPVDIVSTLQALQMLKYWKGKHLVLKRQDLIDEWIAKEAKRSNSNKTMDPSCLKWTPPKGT

IC50 [13]: 5 µM
Structure (SMILES): COc1ccc(C(=O)C2=C3OC(C)(C)[C@@H](CC=C(C)C)C[C@@]34C[C@@H](/C=C\C(C)C)C(C)(C)[C@@](CC=C(C)C)(C2=O)C4=O)cc1O

inhibition [14]: > 50%
inhibition [15]: > 50%
Structure (SMILES): COc1cc(/C=C/c2cc(/C=C/c3ccc(O)c(OC)c3)n(-c3ccc(C(=O)O)cc3)n2)ccc1O

IC50 [16]: > 100 µM
IC50 [17]: 149 µM
IC50 [18]: 190 µM
IC50 [19]: 150 µM
Structure (SMILES): COc1ccc(C2CC(c3cccs3)=NN2c2nc(-c3ccc(N4C(=O)c5ccccc5C4=O)cc3)cs2)cc1OC (stereo not given)

More lines, now with the values behind:

Structure (SMILES): CC(C)(C)OC(=O)NCCCCCNC(=O)CSCCNC(=O)CCNC(=O)[C@H](O)C(C)(C)COP(=O)(O)OP(=O)(O)OC[C@H]1O[C@@H](n2cnc3c(N)ncnc32)[C@H](O)[C@@H]1OP(=O)(O)O
IC50 [1]: 0.07 µM

Structure (SMILES): COc1ccc(S(=O)(=O)ON=C2C=C(C)C(=O)C(C)=C2)cc1
IC50 [2]: 34.7 µM
IC50 [3]: 1.98 µM
IC50 [4]: 33.9 µM
IC50 [5]: 128 µM
inhibition (CREB-binding protein): 32%
inhibition [6]: 2%
inhibition [7]: 1%

Structure (SMILES): C=C(C)[C@@H](/C=C/C(C)C)C[C@@]12C[C@@H](/C=C\C(C)C)C(C)(C)[C@@](CC=C(C)C)(C(=O)C(C(=O)c3ccc(O)c(O)c3)=C1O)C2=O
IC50 [8]: 7 µM

Structure (SMILES): CCCCCCCCCCCC1=C(O)C(=O)C=C(O)C1=O [EMBELIN]
inhibition [9]: 75%
IC50 [10]: 7.2 µM
inhibition [11]: 75%

Structure (SMILES): N=C(N)NCCC[C@@H]1NC(=O)/C(=C/c2ccc(O)c(OCC[C@H](NC(=O)C[C@](O)(CC(=O)O)C(=O)O)C(=O)O)c2)NC1=O
IC50 [12]: 0.022 µM

Structure (SMILES): CCCCCCCCCCCCCCCc1cccc(OCC)c1C(=O)Nc1ccc(Cl)c(C(F)(F)F)c1
Emax [20]: 400%

Structure (SMILES): CC(=O)N[C@@H](CCCCNC(=O)CSCCNC(=O)CCNC(=O)[C@H](O)C(C)(C)COP(=O)(O)OP(=O)(O)OC[C@H]1O[C@@H](n2cnc3c(N)ncnc32)[C@H](O)[C@@H]1OP(=O)(O)O)C(N)=O
IC50 [21]: 0.05 µM
IC50 [22]: 200 µM
IC50 [23]: 0.5 µM
IC50 [12]: 0.0032 µM
